Assay results from PMC10508264, “Exploring the antioxidant, antimicrobial, cytotoxic and biothermodynamic properties of novel morpholine derivative bioactive Mn(II), Co(II) and Ni(II) complexes – combined experimental and theoretical measurements towards DNA/BSA/SARS-CoV-2 3CL^Pro” (RSC Medicinal Chemistry, 2023).

Legend:
CT-DNA = test: DNA binding by UV-vis absorption titration; details: for % H (hypochromism): Tris-HCl pH 7.4, 25 °C; for Kb, BH-I (Benesi–Hildebrand method I) / Kb, BH-II (Benesi–Hildebrand method II) / Kb, SK-I (Sakthi–Krause method I) / Kb, SK-II (Sakthi–Krause method II) / Kb, WS-I (Wolfe–Shimmer method I) / Kb, WS-II (Wolfe–Shimmer method II): pH 7.4, 25 °C
Experimental: The DNA-binding experiment was conducted with an electronic absorption spectrophotometer by raising the DNA concentration from zero to 50 μM to the given concentration of all samples (50 μM) in Tris-HCl buffer (5 mM Tris-HCl/50 mM NaCl) with a pH of 7.4 at 25 °C.[13,23–26]
Most medications involve intercalation and groove binding via GC (guanine/cytosine)-rich and AT (adenine/thymine)-rich domains, respectively. The interactions were determined experimentally by electronic absorption spectrum titration. Moreover, intercalating binding is indicated by bathochromic and hypochromic shifts in the absorption spectra, whereas groove binding of the complexes with DNA is indicated by hyperchromic shifts in the titration curve.[61] Generally, four kinds of non-covalent engagements that can be absolutely critical in the interaction of substances with DNA are most frequently illustrated in the literature: (i) involves a negatively charged phosphate fragment as a result of electrostatic interaction; (ii) influences weak van der Waals force attraction/H-bonding; (iii) interaction of a functional moiety with the grooves (major/minor) of the double-stranded DNA as a result of a molecule sticking due to general attraction, or as a result of water or H-bonding expulsion, etc.; (iv) the stacked base pairs of natural DNA are intercalated by hydrophobic forces. Nevertheless, substances are engaged in the reaction because of […] preferred N-7 position and adenine's N-3 location in DNA. The DNA base pairing may also be prevented due to miscoding. All complexes (1–3), including free ligand (HL), were measured both when DNA was present and when it was absent using ultraviolet–visible spectrophotometric absorption titrations in buffer solution with a pH of 7.4 at 25 °C (Fig. 3). In this case, all substances were exposed to two prominent electronic absorption bands of about 260 nm and 335–343 nm, consequent to the π–π* transitions of the phenyl chromophore and MLCT, respectively. While the amount of DNA in each compound rises, the interaction of the chemical substance with DNA base pairs generates noticeable alterations in the strength and wavelength of the intra-ligand charge transfer bands. […] Using Wolfe–Shimmer eqn (1) and (2), Benesi–Hildebrand eqn (3) and (4) and Sakthi–Krause eqn (5) and (6), the observed overall Kb values for all samples were in the following sequence: (2) > (3) > (1) > (HL). […] It is concluded that the co-planarity of the morpholine-linked ligand and complexation of the 2,2′-bipyridine aromatic system with the metal centre promote the ability of the complex to infiltrate DNA base pairs smoothly. Large aromatic systems may also assist the complex to deeply penetrate the core of the phosphate backbone, and those substances may permit the complex to freely penetrate deep into the DNA base pairs. […] The Wolfe–Shimmer eqn (1) and (2),[62] Benesi–Hildebrand eqn (3) and (4),[63] and Sakthi–Krause eqn (5) and (6) were applied to evaluate the Kb results for all samples, which were obtained by modification of the Lineweaver–Burk and Stern–Volmer equations (Table 1).
The Kb values were measured using the Wolfe–Shimmer eqn (1) and (2) from the linear regression plots of [DNA]/(εa − εf) vs. [DNA] M^−1 for method I and (εb − εf)/(εa − εf) vs. 1/[DNA] M^−1 for method II, respectively (Fig. S15 ^†). The Benesi–Hildebrand binding constant (Kb) values were measured using eqn (3) and (4) from the linear regression plots of [1/(Ax − A0)] vs. {1/[DNA]} M^−1 for method I and [(Amax − A0)/(Ax − A0)] vs. {1/[DNA]} M^−1 for method II, respectively (Fig. S16 ^†). The Kb values were estimated using Sakthi–Krause eqn (5) and (6) from the linear regression plots of [A/(A0 − A)] vs. {1/[DNA]} M^−1 for method I (Fig. S17 ^†) and {1/[DNA]} vs. log[A/(A0 − A)] M^−1 for method II (Fig. S18 ^†). In addition, A0 and A represent the absorbance intensity values in the absence and presence of [DNA], respectively. […]

[1] = Superoxide scavenging assay; details: for % Inhibition, superoxide: 590 nm; for IC50: read-out: IC50, superoxide

Structure (SMILES) | % H (hypochromism) (CT-DNA) [%] | Kb, BH-I (Benesi–Hildebrand method I) (CT-DNA) [M⁻¹] | Kb, BH-II (Benesi–Hildebrand method II) (CT-DNA) [M⁻¹] | Kb, SK-I (Sakthi–Krause method I) (CT-DNA) [M⁻¹] | Kb, SK-II (Sakthi–Krause method II) (CT-DNA) [M⁻¹] | Kb, WS-I (Wolfe–Shimmer method I) (CT-DNA) [M⁻¹] | Kb, WS-II (Wolfe–Shimmer method II) (CT-DNA) [M⁻¹] | % Inhibition, superoxide ([1]; 40 µM) [%] | % Inhibition, superoxide ([1]; 80 µM) [%] | % Inhibition, superoxide ([1]; 120 µM) [%] | % Inhibition, superoxide ([1]; 160 µM) [%] | % Inhibition, superoxide ([1]; 200 µM) [%] | % Inhibition, superoxide ([1]; 240 µM) [%] | IC50 [1] [µM]
[Mn+2].[O-]c1ccccc1N=Cc1ccc(N2CCOCC2)cc1.[O-]c1ccccc1N=Cc1ccc(N2CCOCC2)cc1.c1ccc(-c2ccccn2)nc1 [(1)] | 40.61 | 9942 | 21067 | 11049 | 20389 | 18195 | 20826 | 06.85 | 13.32 | 22.56 | 36.63 | 45.42 | 54.12 | –
[Co+2].[O-]c1ccccc1N=Cc1ccc(N2CCOCC2)cc1.[O-]c1ccccc1N=Cc1ccc(N2CCOCC2)cc1.c1ccc(-c2ccccn2)nc1 [(2)] | 36.16 | 10468 | 21524 | 14965 | 22526 | 18806 | 21379 | 07.02 | 11.73 | 25.81 | 43.12 | 54.42 | 62.24 | 200
[Ni+2].[O-]c1ccccc1N=Cc1ccc(N2CCOCC2)cc1.[O-]c1ccccc1N=Cc1ccc(N2CCOCC2)cc1.c1ccc(-c2ccccn2)nc1 [(3)] | 43.46 | 18212 | 20938 | 13001 | 20417 | 18207 | 21275 | 06.27 | 12.17 | 24.31 | 40.01 | 50.78 | 58.83 | 200
Oc1ccccc1N=Cc1ccc(N2CCOCC2)cc1 [(HL), 2-(4-morpholinobenzylideneamino)phenol] | 37.13 | 6000 | 19515 | 8775 | 17216 | 15169 | 15480 | 05.23 | 10.74 | 18.85 | 33.55 | 40.91 | 50.42 | –
